Measured values published in article PMC8037530, “Synthesis and Hybrid SAR Property Modeling of Novel Cholinesterase Inhibitors” (International Journal of Molecular Sciences, 2021).

Legend:
[1] = biological target: T1, AChE from electric eel (Electrophorus electricus) (Electrophorus electricus, UniProt O42275); assay: In vitro AChE inhibition, modified Ellman's method; format: biochemical
T1 construct: purchased Sigma, St. Louis, MO, USA
Method: (§1) The ability of all the prepared compounds to inhibit AChE from electric eel (Electrophorus electricus) and BChE from equine serum (both purchased from Sigma, St. Louis, MO, USA) was determined in vitro using a modified Ellman’s method, as described in detail elsewhere. This is a simple, rapid, and direct method to determine the SH and -S-S- group content in proteins. The enzyme activity is measured indirectly by quantifying the concentration of the 5-thio-2-nitrobenzoic acid ion formed in the reaction between the thiol reagent 5,5’-dithiobis-2nitrobenzoic acid (DTNB) and thiocholine, which is a product of acetylthiocholine hydrolysis catalyzed by cholinesterases. The effectiveness of the tested inhibitors is expressed as the IC50 values.
(§2) The enzyme activity in the final reaction mixture (2 mL) was 0.2 U/mL, the concentration of the substrate (acetylthiocholine or butyrythiocholine) was 40 µM, and the concentration of DTNB was 0.1 mM for all reactions. All reactions were carried out at 25 °C in the presence of phosphate-buffered saline (0.1 M, pH 7.4) in a glass cuvette with a 1 cm optical path. All the studied inhibitors were dissolved in DMSO (concentration 0.01 M) and then diluted in demineralized water as necessary. […] All measurements were carried out in triplicate, and the average values of the reaction rate (v0—reaction in the absence of the inhibitor, vi—reaction in the presence of the inhibitor) were used for construction of the dependence v0/vi vs. concentration of the inhibitor.

[2] = biological target: T2, BChE from equine serum (Equus caballus, UniProt P81908); assay: In vitro BChE inhibition, modified Ellman's method; format: biochemical; conditions: for SI (index selectivity) = IC50 (AChE)/IC50 (BChE): ratio IC50 AChE/IC50 BChE
T2 construct: BChE from equine serum; purchased Sigma, St. Louis, MO, USA; host or cells: equine serum
T2 sequence (P81908 whole entry): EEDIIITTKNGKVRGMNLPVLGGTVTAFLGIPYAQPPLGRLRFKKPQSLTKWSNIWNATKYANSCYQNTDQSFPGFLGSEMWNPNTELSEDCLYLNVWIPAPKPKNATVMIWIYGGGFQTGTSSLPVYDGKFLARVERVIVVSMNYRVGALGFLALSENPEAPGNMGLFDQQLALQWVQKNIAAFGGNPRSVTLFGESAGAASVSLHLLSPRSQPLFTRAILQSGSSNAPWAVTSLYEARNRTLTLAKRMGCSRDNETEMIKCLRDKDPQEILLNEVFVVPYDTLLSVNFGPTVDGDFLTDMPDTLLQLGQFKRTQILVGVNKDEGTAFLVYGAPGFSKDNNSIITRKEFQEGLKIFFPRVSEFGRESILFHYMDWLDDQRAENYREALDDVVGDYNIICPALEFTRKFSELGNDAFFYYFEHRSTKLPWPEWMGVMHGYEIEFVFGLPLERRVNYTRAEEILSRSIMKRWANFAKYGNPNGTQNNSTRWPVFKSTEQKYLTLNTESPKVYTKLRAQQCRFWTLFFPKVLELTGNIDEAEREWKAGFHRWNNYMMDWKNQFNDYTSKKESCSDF
Method: as §1, §2

[3] = In vitro cell viability assay (CCK-8); format: cell-based; conditions: human, THP-1 cells (human monocytic leukemia), read-out: relative cell viability
Method: The human monocytic leukemia THP-1 cell line was selected for this purpose, as we described previously. Nor 2 neither 28 show negative effect on relative cell viability up to the concentration of 30 µM. The relative cell viability was around 100% at this concentration. It makes compounds 2 and 28 interesting for further pharmacological evaluation and allows them to become lead compounds.
Human monocytic leukemia THP-1 cells were used for in vitro antiproliferative assays. Cells were obtained from the European Collection of Cell Cultures (ECACC, Salisbury, UK) and routinely cultured in Roswell Park Memorial Institute RPMI 1640 medium supplemented with 10% fetal bovine serum (FBS), 2% L-glutamine, 1% penicillin and streptomycin (all from Sigma-Aldrich) at 37 °C with 5% CO2. Cells were passaged twice a week. The effect of the compounds on cell viability was determined using a Cell Counting Kit-8 (CCK-8, 2-(2-methoxy-4-nitrophenyl)-3-(4-nitrophenyl)-5-(2,4-disulfophenyl)-2H-tetrazolium, monosodium salt, Sigma) according to the manufacturer’s instructions. The compounds were dissolved in DMSO and added to the cell suspension in the RPMI 1640 medium without FBS (5 × 10^5 cells/mL). […] After this incubation period, the relative cell viability (the ratio between cells treated with compounds and cells treated only with DMSO) was determined by CCK-8 kit.

[4] = Determination of lipophilicity by RP-HPLC (capacity factor k); format: physicochemical; conditions: C18, isocratic MeOH 72%/H2O 28%, 40 °C
Method: The lipophilicity of all the target compounds was investigated by means of RP-HPLC determination of capacity factors k with a subsequent calculation of log k. The retention times of individual compounds were determined under isocratic conditions with methanol as an organic modifier in the mobile phase using end-capped non-polar C18 stationary RP columns.
The HPLC separation system Agilent 1200 series equipped with a DAD SL (Agilent Technologies) was used. A chromatographic column Symmetry® C18 5 μm, 4.6 × 250 mm, Part No. W21751W016 (Waters Corp., Milford, MA, USA) was applied. The HPLC separation process was monitored by the ChemStation for LC 3D chromatography software (Agilent Technologies). Isocratic elution by a mixture of MeOH p.a. (72%) and H2O-HPLC Mili-Q grade (28%) as a mobile phase was used for the determination of the capacity factor k. The total flow of the column was 1.0 mL/min, injection 20 μL, column temperature 40 °C, and sample temperature 10 °C. The detection wavelength of 210 nm was chosen. A KI methanolic solution was used for the determination of the dead times (tD). Retention times (tR) were measured in minutes. The capacity factors k were calculated according to the formula k = (tR − tD)/tD, where tR is the retention time of the solute and tD is the dead time obtained using an unretained analyte. Each experiment was repeated three times.

T1 sequence (O42275 24-633): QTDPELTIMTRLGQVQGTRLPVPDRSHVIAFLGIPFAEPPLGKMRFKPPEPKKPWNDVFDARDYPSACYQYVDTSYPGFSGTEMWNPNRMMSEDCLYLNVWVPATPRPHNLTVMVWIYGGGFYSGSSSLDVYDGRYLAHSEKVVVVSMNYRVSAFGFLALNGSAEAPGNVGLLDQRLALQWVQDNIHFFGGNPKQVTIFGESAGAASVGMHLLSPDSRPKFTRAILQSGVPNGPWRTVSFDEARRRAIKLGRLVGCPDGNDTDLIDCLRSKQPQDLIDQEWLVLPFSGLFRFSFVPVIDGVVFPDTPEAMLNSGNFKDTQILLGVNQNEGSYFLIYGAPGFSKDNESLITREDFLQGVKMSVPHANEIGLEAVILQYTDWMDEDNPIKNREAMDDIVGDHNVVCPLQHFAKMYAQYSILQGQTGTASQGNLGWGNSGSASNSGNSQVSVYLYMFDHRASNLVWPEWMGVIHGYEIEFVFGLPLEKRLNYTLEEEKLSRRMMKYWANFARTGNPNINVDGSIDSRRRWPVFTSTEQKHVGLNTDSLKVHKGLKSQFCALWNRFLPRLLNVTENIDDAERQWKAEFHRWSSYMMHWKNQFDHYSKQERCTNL

Structure (SMILES)	IC50 [1] [µM]	IC50 [2] [µM]	SI (index selectivity) = IC50 (AChE)/IC50 (BChE) [2]	viability at 24 h, 30 µM [3] [%]	log k [4]
O=C(Nc1ccc(C(=O)Nc2c(F)cc(F)cc2F)c(O)c1)OCc1ccccc1 [Compound 28, Benzyl{3-hydroxy-4-[(2,4,6-trifluorophenyl)carbamoyl]phenyl}carbamate]	49.87 ± 0.09	31 ± 2.11	1.61	~100	-0.0131
O=C(Nc1ccc(C(=O)Nc2cc(Cl)cc(Cl)c2)c(O)c1)OCc1ccccc1 [Compound 25, Benzyl{4-[(3,5-dichlorophenyl)carbamoyl]-3-hydroxyphenyl}carbamate]	50.62 ± 0.38	143 ± 3.69	0.35	–	0.9084
O=C(Nc1ccc(C(=O)Nc2cc(Cl)ccc2Cl)c(O)c1)OCc1ccccc1 [Compound 22, Benzyl{4-[(2,5-dichlorophenyl)carbamoyl]-3-hydroxyphenyl}carbamate]	99.14 ± 0.2	141 ± 7.12	0.70	–	0.6138
O=C(Nc1ccc(C(=O)Nc2cccc(F)c2)c(O)c1)OCc1ccccc1 [Compound 7, Benzyl{4-[(3-fluorophenyl)carbamoyl]-3-hydroxyphenyl}carbamate]	66.6 ± 0.14	197.6 ± 1.36	0.34	–	0.2303
O=C(Nc1ccc(C(=O)Nc2cccc(C(F)(F)F)c2)c(O)c1)OCc1ccccc1 [Compound 13, Benzyl(3-hydroxy-4-{[3-(trifluoromethyl)phenyl]carbamoyl}phenyl)carbamate]	70.67 ± 0.57	309 ± 8.06	0.23	–	0.4477
O=C(Nc1ccc(C(=O)Nc2ccc(Cl)c(Cl)c2)c(O)c1)OCc1ccccc1 [Compound 24, Benzyl{4-[(3,4-dichlorophenyl)carbamoyl]-3-hydroxyphenyl}carbamate]	58 ± 5.83	185 ± 6.13	0.31	–	0.6664
Cc1cccc(NC(=O)c2ccc(NC(=O)OCc3ccccc3)cc2O)c1 [Compound 5, Benzyl{3-hydroxy-4-[(3-methylphenyl)carbamoyl]phenyl}carbamate]	70.2 ± 1.7	167 ± 10.2	0.42	–	0.2725
COc1ccccc1NC(=O)c1ccc(NC(=O)OCc2ccccc2)cc1O [Compound 2, Benzyl{3-hydroxy-4-[(2-methoxyphenyl)carbamoyl]phenyl}carbamate]	50.1 ± 1.57	22.2 ± 0.53	2.26	~100	0.3368
